Experiment [1] has as its system Escherichia coli. As to the kind of experiment: Synergistic antibacterial activity against NDM-1 producing Escherichia coli DH5alpha assessed as fractional inhibitory concentration index incubated for 16 to 20 hrs in presence of meropenem by checkerboard assay. The class given is functional, DH5[alpha]. The conditions noted are these: time 16-20 hrs.
Experiment [2] deals with Klebsiella pneumoniae. The experiment in a line: Antibiotic adjuvant activity against meropenem-treated NDM-producing carbapenem resistant Klebsiella pneumoniae infected in BALB/c mouse sepsis model assessed as survival rate at 10 mg/kg, ip in the presence of meropenem measured after 7 days. Conditions: 168 h, time 7 day. Format: functional.

SMILES strings stand for the structures.

In the case of `C[C@@H](C(=O)O)N(Cc1cccc(C(=O)O)n1)Cc1cccc(C(=O)O)n1`, in experiment [1], the “fractional inhibitory concentration index (FICI)” value was 0.07.
In the case of `C[C@H](C(=O)O)N(Cc1cccc(C(=O)O)n1)Cc1cccc(C(=O)O)n1`, in experiment [2], the survival at 10 mg/kg turned out to be 100%. Also, the “fractional inhibitory concentration index (FICI)” value in experiment [1] amounted to 0.07.

The values above are taken from ChEMBL document CHEMBL4828719, “H2dpa derivatives containing pentadentate ligands: An acyclic adjuvant potentiates meropenem activity in vitro and in vivo against metallo-β-lactamase-producing Enterobacterales” (Eur J Med Chem, 2021).
